According to patent US6046231A, “Use of 4'-bromoflavone in a cancer chemopreventative composition and method” (The Board of Trustees of the University of Illinois, priority 1999, dated 2000):
Like-named read-outs stand apart in the source and are kept apart here.

What was measured:
Hepa 1c1c7 cells = test: Hepa 1c1c7 cell viability (cytotoxicity); format: cell-based, murine; conditions: Mus musculus
[1] = system: quinone reductase (QR), Hepa 1c1c7 cells; test: Quinone reductase (QR) induction in Hepa 1c1c7 cells; format: cell-based, murine; conditions: for CI, chemoprevention index (IC50/CD): 2880 min
Excerpt: This test was used because the specific activity of QR rises concomitantly with other phase II enzymes in many animal tissues in response to various chemopreventive agents. The study included natural and synthetic B-ring substituted flavones, as well as biosynthetic precursor chalcones and flavanones.
Determination of Quinone Reductase Activity in Cell Cultures. To determine the potency of inducers, Hepa 1c1c7 murine hepatoma cells as described in the Gerhauser publication were placed in 96-well plates at a density of 1×10^4 cells/ml in 200 μl of medium. After a preincubation period of 24 hr, the media were decanted and 190 μl fresh media were added to each well. Ten (10) μl test agents dissolved in 10% DMSO (final concentration of DMSO is 0.5%) with a serial 2-fold dilutions were introduced to each well, and the plates were incubated for an additional 48 hours. Specific QR activity was determined by measuring the NADPH-dependent menadiol-mediated reduction of 3-(4, 5-dimethylthiazo-2-yl)-2,5-diphenyltetrazolium bromide to blue formazan formed per mg protein per minute. Protein was determined in an identical set of test plates by staining with crystal violet. Hepa 1c1c7 cells retain many characteristics of normal issues, particularly the capacity for carcinogen activation and metabolism. They are amenable to precise control of environmental, nutritional, and hormonal factors. […] Induction of QR activity was calculated by comparing the QR specific activity of agent-treated cells with that of solvent-treated cells, and a plot of ratio was generated. CD represents the concentration required to double QR induction. Chemopreventive index (CI) is an indexing value generated by comparing CD with IC50 (concentration for 50% inhibition of cell viability) values.
Induction of Quinone Reductase in Hepa 1c1c7 Cells. […] Modification of the B-ring of chalcones, flavanones, and flavones was hypothesized to induce torsion of the B-ring, and, therefor, simulate out-of-plane distortions characteristic of polycyclic aromatic hydrocarbons, such as DMBA. Induction of QR activity was calculated by comparing the QR specific activity of agent-treated cells with the QR specific activity of solvent-treated cells, and a plot of ratios was generated. CD represents the concentration required for a double fold of induction. CI (Chemopreventive Index) is a value obtained by comparing CD with IC50 (concentration for 50% inhibition of cell viability in […]).

[2] = Hepa-1c1c7, Hepa 1c1c7 cells, read-out: IC50, concentration for 50% inhibition of cell viability
[3] = Mus musculus, Hepa-1c1c7, 48 h, Hepa 1c1c7 cells, 48 h, read-out: CD, concentration to double the specific activity of QR
[4] = Hepa 1c1c7 cells, 48 h, read-out: CD, concentration to double the specific activity of QR

| SMILES | CI, chemoprevention index (IC50/CD) [1] | IC50 (Hepa 1c1c7 cells; [2]) [µM] | Cq ([1]; Hepa 1c1c7 cells) [µM] | EC (2-fold) [1, 3] [µM] | EC (2-fold) [1, 4] [µM] | IC50 (Hepa 1c1c7 cells; Hepa-1c1c7, read-out: IC50, concentration for 50% inhibition of cell viability) [µM] | EC (2-fold) ([1]; Mus musculus, Hepa-1c1c7, 48 h, read-out: CD, concentration to double the specific activity of QR, Hepa 1c1c7 cells, 48 h) [µM] |
| --- | --- | --- | --- | --- | --- | --- | --- |
| O=C1CC(c2cccc3ccccc23)Oc2ccccc21 (stereo not drawn) | 24 | 43 | 8.6 | 1.8 | – | – | – |
| O=c1cc(-c2ccccc2F)oc2ccccc12 [2'-Fluoroflavone] | 104 | > 83 | 10 | 0.8 | 0.80 | – | – |
| COc1ccccc1C1CC(=O)c2ccccc2O1 (stereo not drawn) [2'-Methoxyflavanone] | > 125 | > 79 | 6.9 | 0.63 | – | – | – |
| Cc1ccccc1C1CC(=O)c2ccccc2O1 (stereo not drawn) [2'-Methylflavanone] | 81 | 81 | 6.8 | 1 | 1.00 | – | – |
| COc1ccccc1-c1cc(=O)c2ccccc2o1 [2'-methoxyflavone] | – | – | – | 0.01 to 1 | – | – | – |
| O=C(/C=C/c1ccccc1Br)c1ccccc1O [2-Bromo-2'-hydroxychalcone] | 21 | – | 2.0 | – | – | 11 | 0.53 |

Now from value to molecule, other results behind:

| CI, chemoprevention index (IC50/CD) [1] | SMILES | IC50 (Hepa 1c1c7 cells; [2]) [µM] | Cq ([1]; Hepa 1c1c7 cells) [µM] | EC (2-fold) [1, 3] [µM] | EC (2-fold) [1, 4] [µM] | IC50 (Hepa 1c1c7 cells; Hepa-1c1c7, read-out: IC50, concentration for 50% inhibition of cell viability) [µM] | EC (2-fold) ([1]; Mus musculus, Hepa-1c1c7, 48 h, read-out: CD, concentration to double the specific activity of QR, Hepa 1c1c7 cells, 48 h) [µM] |
| --- | --- | --- | --- | --- | --- | --- | --- |
| 26 | COc1cccc(OC)c1/C=C/C(=O)c1ccccc1O [2'-Hydroxy-2,6-dimethoxychalcone] | 14 | 3.7 | 0.53 | 0.54 | – | – |
| 55 | COc1ccccc1/C=C/C(=O)c1ccccc1O [2'-Hydroxy-2-methoxychalcone] | 17 | 1.8 | 0.31 | – | – | – |
| 54 | Cc1ccccc1/C=C/C(=O)c1ccccc1O [2'-Hydroxy-2-methylchalcone] | 36 | 9.0 | 0.67 | – | – | – |
| 37 | O=C(/C=C/c1ccccc1[N+](=O)[O-])c1ccccc1O [2'-Hydroxy-2-nitrochalcone] | 11 | 3.6 | 0.3 | – | – | – |
| > 23 | O=C(/C=C/c1cccc(C(F)(F)F)c1)c1ccccc1O [2'-Hydroxy-3-trifluoromethylchalcone] | 12.8 | 0.55 | < 0.55 | – | – | – |
| > 100 | O=C(/C=C/c1ccc(C(F)(F)F)cc1)c1ccccc1O [2'-Hydroxy-4-trifluoromethylchalcone] | 55 | 1 | < 0.55 | – | – | – |
